The values below come from patent US6054441A, “Oxypurine nucleosides and their congeners, and acyl derivatives thereof, for improvement of hematopoiesis” (priority 1995, dated 2000).

For assay [1], the system named is human myeloid leukemia cell line (HL-60). As to conditions: cited from earlier work; for conversion of immature blast cells into mature granulocytes: HL-60 in vitro; for effect on induced maturation of HL-60 cells: HL-60 with inducing agents.
The test system of assay [2] is blood cell counts after 5-FU. As to the kind of experiment: Pretreatment, recovery after 5-fluorouracil (Example 60). Type of assay: in vivo, Balb/C mice. The following applies: 7 days after 5-FU. How it is done: (§1) Twelve female Balb/C mice weighing approximately 20 grams each received a 0.4 ml i.p. injection of either N-palmitoylguanine (25 mg/kg/treatment) in a Tween-DMSO vehicle (0.2% Tween-80 and 7.5% DMSO in saline) or vehicle alone one time daily for three days. On the fourth day 5-fluorouracil (5-FU; 150 mg/kg, i.p.) was administered to all twelve animals. On day 7 following 5-FU administration all twelve of these animals were bled and then sacrificed by cervical dislocation. Six untreated mice were also bled and sacrificed to provide data on normal (basal) values. Spleens were removed and weighed, and complete blood cell counts performed.

For assay [3], the system named is blood cell counts after cyclophosphamide. As to the kind of experiment: Recovery after cyclophosphamide (Example 61). Type of assay: in vivo, Balb/C mice. The following applies: 7 days after CP. As for the experimental part:
as §1, with “five days following a single injection of cyclophosphamide (CP) (250” for “three days. On the fourth day 5-fluorouracil (5-FU; 150”, “i.p.).” for “i.p.) was administered to all twelve animals.”, “CP” for “5-FU”

Assay [4] deals with Interleukin-3 dependent bone marrow cells. As to conditions: 10 micrograms per milliliter.
Protocol: (§2) Bone marrow cells were obtained by flushing the femurs of three male B6D2F1 mice. The cells were plated at 5.0×10^5 /ml in MEM plus 10% fetal calf serum and 25 Units/ml of recombinant IL-3 for 24-48 hours. Non-adherent cells were then separated from adherent cells and maintained for an additional twelve days. IL-3 was washed from cells, and cells were plated in MEM plus 10% fetal calf serum in the presence or absence of IL-3 and with or without the addition of palmitoyldeoxyguanosine (10 micrograms per milliliter) or deoxyguanosine (10 micrograms per milliliter). Cells were counted using the trypan blue exclusion method, and the percent of dead cells (trypan blue positive) was determined at 24, 40, 60 and 84 hours following the wash.
Assay [5] has the same test system. The assay is described as follows: cells. The following applies: Mus musculus, Bone marrow cell, read-out: % Dead Cells.
Protocol: as §2
The test system of assay [6] is hematopoietic recovery after cyclophosphamide. As to the kind of experiment: Hematopoietic recovery after cyclophosphamide, acyl chain length (Example 38). The following applies: day 7; guanosine 5, acyl derivatives 2.5 μmoles/mouse/day i.p. Type of assay: in vivo, Balb/C mice. How it is done:
Cyclophosphamide (CP) (275 mg/kg, i.p.) was administered to 70 Balb/C female mice weighing approximately 20 grams each. Twenty-four hours later and each day thereafter for a total of 6 days, mice were given a 0.4 ml i.p injection of either physiological saline (controls), Tween 80 (0.2%), guanosine (5 μmoles/mouse/day in 0.2% Tween 80), or 2.5 μmoles per mouse per day of one of the following acylated derivatives of guanosine in 0.2% Tween 80: triacetylguanosine, octanoylguanosine, lauroylguanosine, or palmitoylguanosine. On day 7 following CP administration all 10 animals from each of the 7 groups were bled, and then sacrificed by cervical dislocation. Spleens were removed and weighed, and complete blood counts performed.

For assay [7], the system named is mouse bone marrow cells. The following applies: cited from earlier work.
The test system of assay [8] is hematopoiesis in normal mice. As to the kind of experiment: Hematopoiesis in normal mice (Example 44). Type of assay: in vivo, Balb/C mice. How it is done: Normal, otherwise untreated, female Balb/C mice weighing approximately 20 grams each received a total of 4 or 9 0.4 ml intraperitoneal injections (one per day) of either Tween-80 (0.2%) (controls), palmitoylguanosine (2.5 μmoles/mouse/day), or palmitoyldeoxyinosine (2.5 μmoles/mouse/day). Twenty-four hours after the 4th or 9th treatment, groups of 5 or 6 animals from each of the 3 groups were bled and then sacrificed by cervical dislocation. Spleens were removed and weighed, and complete blood cell counts performed.

Assay [9] relates to hematopoietic recovery after cyclophosphamide. The assay is described as follows: Hematopoietic recovery after cyclophosphamide (Example 48). Type of assay: in vivo, Balb/C mice. How it is done: Cyclophosphamide (CP) (275 mg/kg, i.p.) was administered to 36 Balb/C female mice weighing approximately 20 grams each. Twenty four hours later and each day thereafter for a total of 4 or 6 days, mice were given a 0.4 ml i.p. injection of either physiological saline (controls), palmitoyldeoxyinosine (2.5 μmoles/mouse), or palmitoylxanthosine (2.5 μmoles/mouse). On days 5 and 7 following CP administration 6 of the 12 animals in each of the 3 groups were bled and then sacrificed by cervical dislocation. Spleens were removed and weighed, and complete blood cell counts performed.

For assay [10] the test system is unchanged. As to the kind of experiment: Hematopoietic recovery after cyclophosphamide (Example 50). Type of assay: in vivo, Balb/C mice. As to conditions: day 5; 2 μmoles/mouse. As for the experimental part: Cyclophosphamide (CP) (275 mg/kg, i.p.) was administered to 96 Balb/C female mice weighing approximately 20 grams each. Twenty-four hours later and each day thereafter mice were given a 0.4 ml i.p. injection of either Tween-80 (0.2%) (controls), palmitoyldeoxyguanosine (2 μmoles/mouse), palmitoyldeoxyinosine (2 μmoles/mouse), palmitoylacyclovir (2 μmoles/mouse), palmitoylarabinosylguanine (2 μmoles/mouse), palmitoylarabinosylhypoxanthine (2 μmoles/mouse), monopalmitoylguanosine 2',3'-acyclic dialcohol (2 μmoles/mouse), and palmitoyl-8-thioguanosine (2 μmoles/mouse). On days 5 and 7 following CP administration 6 animals in each of the 8 groups were bled and then sacrificed by cervical dislocation. Spleens were removed and weighed, and complete blood cell counts performed.

Assay [11] shares this test system. As to the kind of experiment: Hematopoietic recovery after cyclophosphamide (Example 37). Type of assay: in vivo, Balb/C mice. As to conditions: 5 μmoles/mouse/day i.p. 6 days; day 7; vs saline. How it is done:
Twenty-four hours later and each day thereafter for a total of 6 days, mice were given a 0.4 ml i.p. injection of either physiological saline (controls), guanine (5 μmoles/mouse/day), or guanosine (5 μmoles/mouse/day). On day 7 all 10 mice in each of the three groups were bled, and then sacrificed by cervical dislocation. Spleens were removed and weighed, and complete blood cell counts performed.

The test system is the same in assay [12]. The assay is described as follows: Hematopoietic recovery after cyclophosphamide (Example 64). Type of assay: in vivo, Balb/C mice. As to conditions: day 7. As for the experimental part: Fourteen female Balb/C mice weighing approximately 20 grams each received a 0.4 ml i.p. injection of either N-isobutyryldeoxyguanosine (50 mg/kg/treatment) in a Tween vehicle (0.2% Tween-80 in saline) or vehicle alone one time daily for five days following a single injection of cyclophosphamide (CP) (250 mg/kg, i.p.). On day 7 following CP administration all fourteen animals were bled and then sacrificed by cervical dislocation. Spleens were removed and weighed, and complete blood cell counts performed.

The mark [13] stands for this setting: in presence of post-endotoxin serum.

Each structure is given as a SMILES string. Like-named read-outs stand apart in the source and are kept apart here.

In the case of `CN(C)C=O` [dimethylformamide, reference compound], the “conversion of immature blast cells into mature granulocytes” value (“conversion” below) in assay [1] is recorded as “induced”.

`CCCCCCCCCCCCCCCC(=O)Nc1nc2nc[nH]c2c(=O)[nH]1` [NPG, N^2 -Palmitoylguanine]: in [2] (25 mg/kg/treatment), the Lymphocytes was 4.5 ± .5 K/μl, the Platelets is 787 ± 72 K/μl and the WBC is listed as 4.6 ± .5 K/μl. Besides, the Spleen in assay [2] (25 mg/kg/treatment i.p., 3 days before) amounted to 79 ± 3 mg. In addition, in assay [3] (25 mg/kg/treatment), the Neutrophils is reported as 5.5 ± .5 K/μl, the Platelets was determined as 774 ± 734 K/μl and the WBC is 7.3 ± .6 K/μl. In assay [3] (25 mg/kg/treatment i.p., 5 days), this compound showed a Spleen of 145 ± 13 mg.

Turning to `Nc1nc2c(ncn2[C@H]2C[C@H](O)[C@@H](CO)O2)c(=O)[nH]1` [dG, deoxyguanosine], the “prevention of apoptotic cell death due to IL-3 deprivation” value in [4] was “did nothing to prevent apoptotic cell death due to IL-3 deprivation”. Further, the cytotoxicity at 10 µg/mL in [5] (24 h) was found to be 15.5 ± 0.5%; in assay [5] (40 h), 21.5 ± 3.5%; in assay [5] (60 h) it was 46.3 ± 10.3%; in [5] (84 h) it was 68.3 ± 6%.

Regarding `CCCCCCCCCCCC(=O)OC[C@H]1O[C@@H](n2cnc3c(=O)[nH]c(N)nc32)[C@H](O)[C@@H]1O` [laurolyguanosine, Lauroylguanosine], the spleen weight entry in assay [6] is reported as “significantly larger spleens”.

For `Nc1nc2c(ncn2[C@@H]2O[C@@H]3COP(=O)(O)O[C@H]3[C@H]2O)c(=O)[nH]1` [cGMP, 3',5'-cyclic guanosine monophosphate], the results for the “number of colonies formed” value in assay [7] (in absence of post-endotoxin serum) and in assay [7] (setting [13]) were “no effect” and “increase in the number of colonies formed”, respectively.

`CC1=C(/C=C/C(C)=C/C=C/C(C)=C/C(=O)O)C(C)(C)CCC1` [retinoic acid, reference compound]: the “conversion” value in assay [1] was “induced”.

Regarding `OC[C@H]1O[C@@H](n2cnc3c(O)ncnc32)[C@H](O)[C@@H]1O` [inosine], the “effect on induced maturation of HL-60 cells” value in assay [1] is given as “no effect on induced maturation”.

As for `CCCCCCCCCCCCCCCC(=O)OC[C@H]1O[C@@H](n2cnc3c(=O)[nH]cnc32)C[C@@H]1O`, the spleen weight result in assay [8] (day 5, 2.5 μmoles/mouse/day i.p.) is given as “significantly greater”; in assay [8] (day 10, vs Tween 80), “significantly greater”; in assay [9] (day 5, 2.5 μmoles/mouse, vs controls), “significantly elevated”; in [9] (day 7, vs controls), “significantly increased”; in [10], “significantly elevated”. For the same compound, the neutrophil counts entry in assay [8] (day 10, vs Tween 80) is on record as “significantly greater”; in [9] (day 5, vs controls) it was “significantly elevated”; in assay [9] (day 5, vs palmitoylxanthosine), “significantly elevated”. Also, the total leukocyte counts entry in assay [8] (day 10, vs Tween 80) is given as “significantly greater”; in assay [9] (day 5, vs controls), “significantly elevated”; in [9] (day 5, vs palmitoylxanthosine), “significantly elevated”. The Neutrophils result in assay [9] (day 7, vs controls) is recorded as “significantly increased”. The total leukocytes entry in assay [9] (day 7, vs controls) is on record as “significantly increased”.

Regarding `Nc1nc2c(ncn2[C@@H]2O[C@H](COP(=O)(O)O)[C@@H](O)[C@H]2O)c(=O)[nH]1` [5'-guanosine monophosphate], in assay [7] (setting [13]), the “number of colonies formed” value is “inactive”.

For the compound `NC(=O)c1csc([C@@H]2O[C@H](CO)[C@@H](O)[C@H]2O)n1` [tiazofurin, reference compound], in [1], the “conversion” value is “induced”.

With `Nc1nc2nc[nH]c2c(=O)[nH]1` [guanine], in assay [11], the Neutrophils result was “significantly more”, the spleen weight result is “significantly heavier spleens” and the “total white blood cells” value was “significantly more”. Moreover, the “effect on induced maturation of HL-60 cells” value in assay [1] is “prevented their induced maturation into functional neutrophils”.

In the case of `CC(C)C(=O)Nc1nc2c(ncn2[C@H]2C[C@H](O)[C@@H](CO)O2)c(=O)[nH]1` [N-isobutyryldeoxyguanosine], in assay [12] (50 mg/kg/treatment, control 72.7±2.7, p<.001, in mg (unit assumed)), the spleen weight is 116.3±8.0. Besides, the lymphocyte counts in assay [12] (control 1.2±0.2, p<.02) amounted to 2.1±0.2. The compound further yielded a total neutrophil counts in assay [12] (control 3.3±0.4, p<.001) of 6.6±0.5. Also, the “white blood cell counts” value in [12] (control 4.6±0.5, p<.001) is on record as 8.9±0.5.
